Marks after values point to notes of the source that are not given here.

One data set is described as follows: Measurement of LogP values by HPLC on reversed phase columns (EEC directive 79/831 Annex V.A8). The format is physicochemical.
Conditions: not given
As for the experimental part:
The abbreviations and numerations of the substituent positions used in the context of the present invention and in the following Tables are explained in detail in the section Examples hereinafter. Also, the LogP values indicated in the following Tables are explained in detail in the section Examples hereinafter. In case LogP values for different diastereoisomers of a specific compound are […], said LogP values are […] by a “+”. […] Measurement of LogP values was performed according to EEC directive 79/831 Annex V.A8 by HPLC (High Performance Liquid Chromatography) on reversed phase columns with the following methods: […] Lambda-max-values were determined using UV-spectra from 200 nm to 400 nm and the peak values of the chromatographic signals
Consider `O=C(Nc1nsc(C(=O)O)c1Cl)c1ccc(F)cc1` [E-VIII-007], for which the “LogP [a]” value is 1.02^[a].
Same read-out and setting: the figure for `O=C(O)c1snc(N(Cc2ccccc2)Cc2ccccc2)c1-c1ccc(F)cc1` [E-VIII-010] is 4.49^[a]; for `COc1ccc(CNc2cc(C(=O)O)sn2)cc1` [E-VIII-016] it is 1.87^[a].
On to `Nc1nsc(C(=O)NC2CCCCC2)c1Cl` [I-001], for which the LogP is 2.10[a].
`Nc1nsc(C(=O)NCC2CCCCC2)c1Cl` [I-002]: the LogP is 2.40[a].
The same measure, in the same setting: the figure for `C[C@H](NC(=O)c1snc(N)c1Cl)C1CCCCC1` [I-003] is 2.50[a]; for `Nc1nsc(C(=O)NCc2ccccc2)c1Cl` [I-004] it is 1.69[a]; for `Nc1cc(C(=O)NCC2CCCCC2)sn1` [I-005] it is 1.92[a].
The same measure, in the same setting: the figure for `C[C@H](NC(=O)c1cc(N)ns1)C1CCCCC1` [I-006] is 2.09[a]; for `Nc1cc(C(=O)NC2CCCCC2)sn1` [I-007] it is 1.49[a]; for `Nc1cc(C(=O)NCc2ccccc2)sn1` [I-008] it is 1.32[a].
Still for that read-out and setting: to `Nc1nsc(C(=O)NCc2ccccc2Cl)c1Cl` [I-009] belongs 2.12[a]; to `Nc1nsc(C(=O)NCC2CCCOC2)c1Cl` (stereo not drawn) [I-010], 1.07[a]; to `Nc1nsc(C(=O)NCC2CCOC2)c1Cl` (stereo not drawn) [I-011], 0.73[a].
For `Nc1nsc(C(=O)NCC2CCOCC2)c1Cl` [I-012], the LogP was 0.90[a].
Still for that read-out and setting: to `Nc1nsc(C(=O)NCC2CCCO2)c1Cl` (stereo not drawn) [I-013] belongs 1.02[a].
For the compound `Nc1nsc(C(=O)NCC2CCCCO2)c1Cl` (stereo not drawn) [I-014], the LogP was 1.47[a].
Still for that read-out and setting: the figure for `Nc1nsc(C(=O)NCc2cc(F)ccc2F)c1Cl` [I-015] is 1.88[a]; for `Nc1nsc(C(=O)NCc2ccc(Cl)cc2Cl)c1Cl` [I-018] it is 2.62[a]; for `Nc1nsc(C(=O)NCc2cccc(Cl)c2Cl)c1Cl` [I-019] it is 2.49[a].
On the same count and under the same terms, the figure for `Nc1nsc(C(=O)NCc2ccc(Cl)cc2)c1Cl` [I-020] is 2.16[a]; for `Nc1nsc(C(=O)NCc2cccc(Cl)c2)c1Cl` [I-021] it is 2.15[a]; for `COc1cccc(CNC(=O)c2snc(N)c2Cl)c1` [I-022] it is 1.75[a].
For the compound `Nc1nsc(C(=O)NC2(c3ccc(F)cc3)CC2)c1Cl` [I-023], the LogP was 2.02[a].
On the same count and under the same terms, the figure for `Nc1nsc(C(=O)NCc2cc(F)cc(F)c2)c1Cl` [I-024] is 2.11[a].
Same read-out and setting: to `Nc1nsc(C(=O)NCc2ccc(F)cc2)c1Cl` [I-025] belongs 1.83[a]; to `Nc1nsc(C(=O)NCc2cccc(F)c2)c1Cl` [I-026], 1.84[a].
Same read-out and setting: the figure for `Nc1nsc(C(=O)NCc2cc(Cl)cc(Cl)c2)c1Cl` [I-027] is 2.63[a]; for `Nc1cc(C(=O)NCc2ccc(Cl)cc2)sn1` [I-028] it is 1.75[a]; for `Nc1cc(C(=O)NCc2ccc(F)cc2)sn1` [I-029] it is 1.27[a].
As for `Nc1cc(C(=O)NCc2cc(F)ccc2F)sn1` [I-030], the LogP is 1.49[a].
Still for that read-out and setting: to `Nc1cc(C(=O)NCc2ccc(F)cc2F)sn1` [I-031] belongs 1.56[a]; to `Cn1cc(CNC(=O)c2snc(N)c2Cl)cn1` [I-033], 0.59[a].
Still for that read-out and setting: to `Cc1nn(C)cc1CNC(=O)c1snc(N)c1Cl` [I-034] belongs 0.76[a].
On the same count and under the same terms, the figure for `Nc1nsc(C(=O)NCc2cccnc2Cl)c1Cl` [I-036] is 1.22[a]; for `Nc1nsc(C(=O)NCc2cncc(F)c2)c1Cl` [I-037] it is 0.92[a].
As to `Nc1nsc(C(=O)NCc2ccnc(F)c2)c1Cl` [I-038], the LogP was 1.04[a].
Turning to `Cc1ccnc(CNC(=O)c2snc(N)c2Cl)n1` [I-039], the LogP was 0.83[a].
`C[C@H](NC(=O)c1snc(NCc2ccccc2)c1Cl)C1CCCCC1` [I-040]: the LogP is 4.74[a].
Still for that read-out and setting: the figure for `Cc1c(N)nsc1C(=O)NCc1ccc(F)cc1F` [I-041] is 1.64[a]; for `Cc1c(N)nsc1C(=O)NCC1CCCCC1` [I-042] it is 2.01[a]; for `COc1ccc(CNc2nsc(C(=O)NCc3ccccc3F)c2Cl)cc1` [I-043] it is 3.46[a].
Still for that read-out and setting: to `COc1ccc(CNc2nsc(C(=O)NCC3CCCC3)c2Cl)cc1` [I-044] belongs 4.04[a]; to `COc1ccc(CNc2nsc(C(=O)NCC3CCCCCC3)c2Cl)cc1` [I-045], 4.69[a].
On the same count and under the same terms, to `O=C(NC1CCCC2CCCCC21)c1snc(NCc2ccccc2)c1Cl` (stereo not drawn) [I-046] belongs 5.23[a].
Turning to `O=C(NC1CCCC2CCCCC21)c1snc(NCc2ccccc2)c1NCc1ccccc1` (stereo not drawn) [I-047], the LogP is 5.65[a].
On the same count and under the same terms, to `CC(C)(NC(=O)c1snc(NCc2ccccc2)c1Cl)C1CCCCC1` [I-048] belongs 5.35[a].
As for `COc1ccc(CNC(=O)c2snc(N)c2C)cc1` [I-049], the LogP was 1.42[a].
With `Cc1c(N)nsc1C(=O)NCc1ccc(F)cc1` [I-050], the LogP was 1.52[a].
Regarding `Cc1c(N)nsc1C(=O)NCc1ccc(Cl)cc1` [I-051], the LogP was 1.86[a].
Same read-out and setting: the figure for `COc1ccc(CNC(=O)c2cc(N)ns2)cc1` [I-052] is 1.28[a]; for `Nc1nsc(C(=O)N(Cc2ccc(F)cc2F)C2CC2)c1Cl` [I-053] it is 2.62[a]; for `Nc1nsc(C(=O)NCC2CCCCCC2)c1Cl` [I-054] it is 2.86[a].
Regarding `COc1ccc(CNc2nsc(C(=O)NCC3CCCCC3(C)C)c2Cl)cc1` (stereo not drawn) [I-056], the LogP is 4.95[a].
Consider `O=C(NCc1ccccc1F)c1snc(NC2CC2)c1Cl` [I-057], for which the LogP is 2.66[a].
Still for that read-out and setting: to `C#CCNc1nsc(C(=O)NCc2ccccc2F)c1Cl` [I-058] belongs 2.54[a]; to `O=C(NCc1ccccc1F)c1snc(Nc2ccc(F)cc2)c1Cl` [I-059], 3.68[a].
Same read-out and setting: the figure for `COc1ccc(Nc2nsc(C(=O)NCc3ccccc3F)c2Cl)cc1` [I-060] is 3.46[a]; for `C[C@H](NC(=O)c1snc(NC2CC2)c1Cl)C1CCCCC1` [I-061] it is 3.75[a]; for `C#CCNc1nsc(C(=O)N[C@@H](C)C2CCCCC2)c1Cl` [I-062] it is 3.56[a].
Take `C[C@H](NC(=O)c1snc(Nc2ccc(F)cc2)c1Cl)C1CCCCC1` [I-063]: the LogP was 4.81[a].
Turning to `C[C@H](NC(=O)c1snc(Nc2ccccc2)c1Cl)C1CCCCC1` [I-064], the LogP is 4.78[a].
Turning to `COc1ccc(CNc2nsc(C(=O)N[C@@H](C)C3CCCCC3)c2Cl)cc1` [I-065], the LogP is 4.66[a].
On the same count and under the same terms, the figure for `C=CCNc1nsc(C(=O)N[C@@H](C)C2CCCCC2)c1Cl` [I-066] is 4.02[a].
Still for that read-out and setting: the figure for `O=C(NCc1ccccc1F)c1snc(Nc2ccccc2)c1Cl` [I-067] is 3.63[a].
Turning to `COc1ccc(Nc2nsc(C(=O)N[C@@H](C)C3CCCCC3)c2Cl)cc1` [I-068], the LogP was 4.59[a].
The same measure, in the same setting: to `O=C(NCc1ccccc1F)c1snc(NCc2ccccc2)c1Cl` [I-069] belongs 3.56[a]; to `COc1ccc(CNc2nsc(C(=O)N[C@H](C)C3CCCCC3)c2Cl)cc1` [I-070], 4.56[a]; to `C=CCNc1nsc(C(=O)NCc2ccccc2F)c1Cl` [I-071], 2.89[a].
The same measure, in the same setting: to `COc1ccc(CN(C(=O)C(=O)N[C@H](C)C2CCCCC2)c2nsc(C(=O)N[C@H](C)C3CCCCC3)c2Cl)cc1` [I-072] belongs 4.54[a]; to `Nc1nsc(C(=O)NCC2CCCC2)c1Cl` [I-073], 2.15[a]; to `COc1ccc(CNc2nsc(C(=O)NC3CCCCC3(C)C)c2Cl)cc1` (stereo not drawn) [I-075], 4.64[a].
In the case of `COc1ccc(CNc2nsc(C(=O)NCC3C(C)CCCC3(C)C)c2Cl)cc1` (stereo not drawn) [I-076], the LogP is 5.48[a].
Same read-out and setting: the figure for `C[C@@H](NC(=O)c1snc(N)c1Cl)C1CCCCC1` [I-077] is 2.78[a]; for `COc1ccc(CNc2nsc(C(=O)NCC3CC=CCC3)c2Cl)cc1` (stereo not drawn) [I-078] it is 3.90[a]; for `COc1ccc(CNc2nsc(C(=O)NCC3(C)CCCCC3)c2Cl)cc1` [I-079] it is 4.69[a].
The same measure, in the same setting: to `CC1(C)CCCCC1CNC(=O)c1snc(N)c1Cl` (stereo not drawn) [I-080] belongs 3.05[a]; to `CC1CCCC(C)(C)C1CN(C(=O)c1snc(N)c1Cl)C1CC1` (stereo not drawn) [I-081], 4.08[a]; to `CC1(C)CCCCC1NC(=O)c1snc(N)c1Cl` (stereo not drawn) [I-082], 2.66[a].
With `CC1CCCC(C)(C)C1CNC(=O)c1snc(N)c1Cl` (stereo not drawn) [I-083], the LogP was 3.54[a].
On to `COc1ccc(CNc2nsc(C(=O)NCC3=CCCCC3)c2Cl)cc1` [I-084], for which the LogP is 4.02[a].
For the compound `Nc1nsc(C(=O)NCC2CC=CCC2)c1Cl` (stereo not drawn) [I-085], the LogP is 2.14[a].
Same read-out and setting: to `CC1(CNC(=O)c2snc(N)c2Cl)CCCCC1` [I-086] belongs 2.84[a].

The same data set, now with this note: HPLC LC-UV, acidic range, 0.1% formic acid in water and acetonitrile as eluent.
As usually defined, the chromatographic logP is a lipophilicity value derived from retention on a column. Low readings indicate a more hydrophilic compound, high ones a more lipophilic compound. Compound `O=Cc1c(N(Cc2ccccc2)Cc2ccccc2)nsc1C(=O)O` [E-VIII-006, 3-(dibenzylamino)-4-formyl-1,2-thiazole-5-carboxylic acid] registered a chromatographic logP of 3.21.
`O=C(O)c1snc(N(Cc2ccccc2)Cc2ccccc2)c1C1CC1` [E-VIII-008, 4-cyclopropyl-3-(dibenzylamino)isothiazole-5-carboxylic acid] gave a chromatographic logP of 4.11.
On the same count and under the same terms, to `O=C(O)c1snc(N(Cc2ccccc2)Cc2ccccc2)c1C(F)F` [E-VIII-009, 3-(dibenzylamino)-4-(difluoromethyl)-1,2-thiazole-5-carboxylic acid] belongs 3.78.
In the case of `Nc1nsc(C(=O)O)c1Cl` [E-VIII-012, 3-amino-4-chloroisothiazole-5-carboxylic acid], the chromatographic logP is -0.13.
